# Measured values as given in patent US7655701B2, “Cycloalkylidene-(ortho substituted phenyl)-acetonitriles and their use as odorants” (Givaudan SA, priority 2005, dated 2010).
# Test: Determination of GC-odor threshold values
# Conditions: gas chromatograph with sniff port, panel of trained evaluators; absolute amount delivered at the sniff port
# Procedure: According to standard procedures known to the person skilled in the art, threshold values for volatile perfumery compounds are determined on a gas chromatograph equipped with a sniff port by a panel of trained evaluators. The lowest concentration smelled by each panellist is recorded as the individual threshold value expressed in ng (absolute amount of compound delivered at the sniff port).
# Under identical conditions the odour threshold value for the individual compounds was measured.
row,Structure (SMILES),odour threshold value geometric mean [ng]
1,"Cc1ccccc1C(C#N)=C1CCCCC1 [Example 1, Cyclohexylidene-o-tolyl-acetonitrile]",0.12
2,"Cc1ccc(C(C#N)=C2CCCCC2)cc1 [Example 2, Cyclohexylidene-p-tolyl-acetonitrile]",2.91
3,"Cc1cccc(C(C#N)=C2CCCCC2)c1 [Example 4, Cyclohexylidene-m-tolyl-acetonitrile]",1.08
4,"N#CC(=C1CCCCC1)c1ccccc1 [Peonile ®, cyclohexylidene-phenyl-acetonitrile]",0.53
